{
  "source": "patent US20250154135A1",
  "about": "“M-CHOLINE RECEPTOR AGONIST COMPOUND, PREPARATION METHOD THEREFOR AND USE THEREOF” (NANJING GRITPHARMA CO., LTD., priority 2022, published 2025)",
  "test": "Determination of salt-forming ratios of pilocarpine salt formulations (HPLC)",
  "format": "physicochemical",
  "conditions": "for salt-forming ratios of the formulations: different conditions",
  "method": "The determination of the salt-forming ratios of the pilocarpine salt formulations was performed using high-performance liquid chromatography with the following conditions: chromatographic column: C18 column; sample injection volume: 10 μL; mobile phase: K2HPO4 (adjusted to pH 6.50±0.1 with phosphoric acid)-methanol-acetonitrile (63:2:35); flow rate: 0.7 mL/min; column temperature: 30° C.; detection wavelength: 215 nm; […] determination was performed, and the salt-forming ratios were calculated according to the peak areas of free acid radicals and pilocarpine.\nThe samples were separately injected to determine the salt-forming ratios of different compound 1 formulations. Meanwhile, the salt-forming ratios of the compound 1 formulation solutions with different pH values under different conditions were determined using the above stability examination methods.\nThe samples were separately injected to determine the salt-forming ratios of different compound 2 formulations. Meanwhile, the salt-forming ratios of the compound 2 formulation solutions with different pH values under different conditions were determined using the above stability examination methods.",
  "key": {"[1]": {"conditions": "formulation pH 4.8, 40° C./10 d"}, "[2]": {"conditions": "formulation pH 4.8, 60° C./10 d"}, "[3]": {"conditions": "formulation pH 4.8, Light irradiation/5 d"}, "[4]": {"conditions": "formulation pH 4.8, Light irradiation/10 d"}},
  "data": [
    {"smiles": "CC[C@@H]1C(=O)OC[C@@H]1Cc1cncn1C", "note": "[Compound 1]", "values": [
      {"measurement": "salt-forming ratios of the formulations", "result": "substantially stable"},
      {"measurement": "Salt-forming ratio", "setting": "formulation pH 3.6, 0 d", "result": 1.19},
      {"measurement": "Salt-forming ratio", "setting": "formulation pH 3.6, 40° C./5 d", "result": 1.08},
      {"measurement": "Salt-forming ratio", "setting": "formulation pH 3.6, 40° C./10 d", "result": 1.09},
      {"measurement": "Salt-forming ratio", "setting": "formulation pH 3.6, 60° C./5 d", "result": 1.15},
      {"measurement": "Salt-forming ratio", "setting": "formulation pH 3.6, 60° C./10 d", "result": 1.24},
      {"measurement": "Salt-forming ratio", "setting": "formulation pH 3.6, Light irradiation/5 d", "result": 1.06},
      {"measurement": "Salt-forming ratio", "setting": "formulation pH 3.6, Light irradiation/10 d", "result": 1.06},
      {"measurement": "Salt-forming ratio", "setting": "formulation pH 4.1, 0 d", "result": 1.03},
      {"measurement": "Salt-forming ratio", "setting": "formulation pH 4.1, 40° C./5 d", "result": 1.06},
      {"measurement": "Salt-forming ratio", "setting": "formulation pH 4.1, 40° C./10 d", "result": 1.06},
      {"measurement": "Salt-forming ratio", "setting": "formulation pH 4.1, 60° C./5 d", "result": 1.09},
      {"measurement": "Salt-forming ratio", "setting": "formulation pH 4.1, 60° C./10 d", "result": 1.10},
      {"measurement": "Salt-forming ratio", "setting": "formulation pH 4.1, Light irradiation/5 d", "result": 1.04},
      {"measurement": "Salt-forming ratio", "setting": "formulation pH 4.1, Light irradiation/10 d", "result": 1.04},
      {"measurement": "Salt-forming ratio", "setting": "formulation pH 4.7, 0 d", "result": 1.03},
      {"measurement": "Salt-forming ratio", "setting": "formulation pH 4.7, 40° C./5 d", "result": 1.04},
      {"measurement": "Salt-forming ratio", "setting": "formulation pH 4.7, 40° C./10 d", "result": 1.02},
      {"measurement": "Salt-forming ratio", "setting": "formulation pH 4.7, 60° C./5 d", "result": 1.02},
      {"measurement": "Salt-forming ratio", "setting": "formulation pH 4.7, 60° C./10 d", "result": 1.00},
      {"measurement": "Salt-forming ratio", "setting": "formulation pH 4.7, Light irradiation/5 d", "result": 1.03},
      {"measurement": "Salt-forming ratio", "setting": "formulation pH 4.7, Light irradiation/10 d", "result": 1.03},
      {"measurement": "Salt-forming ratio", "setting": "formulation pH 4.8, 0 d", "result": 1.02},
      {"measurement": "Salt-forming ratio", "setting": "formulation pH 4.8, 40° C./5 d", "result": 1.04},
      {"measurement": "Salt-forming ratio", "setting": "[1]", "result": 1.02},
      {"measurement": "Salt-forming ratio", "setting": "formulation pH 4.8, 60° C./5 d", "result": 0.99},
      {"measurement": "Salt-forming ratio", "setting": "[2]", "result": 0.97},
      {"measurement": "Salt-forming ratio", "setting": "[3]", "result": 1.03},
      {"measurement": "Salt-forming ratio", "setting": "[4]", "result": 1.02},
      {"measurement": "Salt-forming ratio", "setting": "formulation pH 5.1, 0 d", "result": 1.02},
      {"measurement": "Salt-forming ratio", "setting": "formulation pH 5.1, 40° C./5 d", "result": 1.03},
      {"measurement": "Salt-forming ratio", "setting": "formulation pH 5.1, 40° C./10 d", "result": 1.01},
      {"measurement": "Salt-forming ratio", "setting": "formulation pH 5.1, 60° C./5 d", "result": 0.97},
      {"measurement": "Salt-forming ratio", "setting": "formulation pH 5.1, 60° C./10 d", "result": 0.92},
      {"measurement": "Salt-forming ratio", "setting": "formulation pH 5.1, Light irradiation/5 d", "result": 1.03},
      {"measurement": "Salt-forming ratio", "setting": "formulation pH 5.1, Light irradiation/10 d", "result": 1.02},
      {"measurement": "Salt-forming ratio", "setting": "formulation pH 5.6, 0 d", "result": 1.02},
      {"measurement": "Salt-forming ratio", "setting": "formulation pH 5.6, 40° C./5 d", "result": 1.01},
      {"measurement": "Salt-forming ratio", "setting": "formulation pH 5.6, 40° C./10 d", "result": 0.98},
      {"measurement": "Salt-forming ratio", "setting": "formulation pH 5.6, 60° C./5 d", "result": 0.91},
      {"measurement": "Salt-forming ratio", "setting": "formulation pH 5.6, 60° C./10 d", "result": 0.85},
      {"measurement": "Salt-forming ratio", "setting": "formulation pH 5.6, Light irradiation/5 d", "result": 1.02},
      {"measurement": "Salt-forming ratio", "setting": "formulation pH 5.6, Light irradiation/10 d", "result": 1.01}
    ]},
    {"smiles": "CC[C@@H]1C(=O)OC[C@@H]1Cc1cncn1C", "note": "[Compound 2]", "values": [
      {"measurement": "salt-forming ratios of the formulations", "result": "substantially stable"},
      {"measurement": "Salt-forming ratio", "setting": "formulation pH 4.3, 0 d", "result": 1.25},
      {"measurement": "Salt-forming ratio", "setting": "formulation pH 4.3, 40° C./5 d", "result": 1.14},
      {"measurement": "Salt-forming ratio", "setting": "formulation pH 4.3, 40° C./10 d", "result": 1.15},
      {"measurement": "Salt-forming ratio", "setting": "formulation pH 4.3, 60° C./5 d", "result": 1.17},
      {"measurement": "Salt-forming ratio", "setting": "formulation pH 4.3, 60° C./10 d", "result": 1.23},
      {"measurement": "Salt-forming ratio", "setting": "formulation pH 4.3, Light irradiation/5 d", "result": 1.12},
      {"measurement": "Salt-forming ratio", "setting": "formulation pH 4.3, Light irradiation/10 d", "result": 1.13},
      {"measurement": "Salt-forming ratio", "setting": "formulation pH 4.5, 0 d", "result": 1.00},
      {"measurement": "Salt-forming ratio", "setting": "formulation pH 4.5, 40° C./5 d", "result": 1.02},
      {"measurement": "Salt-forming ratio", "setting": "formulation pH 4.5, 40° C./10 d", "result": 1.01},
      {"measurement": "Salt-forming ratio", "setting": "formulation pH 4.5, 60° C./5 d", "result": 1.02},
      {"measurement": "Salt-forming ratio", "setting": "formulation pH 4.5, 60° C./10 d", "result": 1.01},
      {"measurement": "Salt-forming ratio", "setting": "formulation pH 4.5, Light irradiation/5 d", "result": 1.01},
      {"measurement": "Salt-forming ratio", "setting": "formulation pH 4.5, Light irradiation/10 d", "result": 1.01},
      {"measurement": "Salt-forming ratio", "setting": "formulation pH 4.8, 0 d", "result": 1.00},
      {"measurement": "Salt-forming ratio", "setting": "formulation pH 4.8, 40° C./5 d", "result": 1.01},
      {"measurement": "Salt-forming ratio", "setting": "[1]", "result": 1.00},
      {"measurement": "Salt-forming ratio", "setting": "formulation pH 4.8, 60° C./5 d", "result": 0.98},
      {"measurement": "Salt-forming ratio", "setting": "[2]", "result": 0.96},
      {"measurement": "Salt-forming ratio", "setting": "[3]", "result": 1.01},
      {"measurement": "Salt-forming ratio", "setting": "[4]", "result": 1.01},
      {"measurement": "Salt-forming ratio", "setting": "formulation pH 5.0, 0 d", "result": 1.00},
      {"measurement": "Salt-forming ratio", "setting": "formulation pH 5.0, 40° C./5 d", "result": 1.00},
      {"measurement": "Salt-forming ratio", "setting": "formulation pH 5.0, 40° C./10 d", "result": 0.99},
      {"measurement": "Salt-forming ratio", "setting": "formulation pH 5.0, 60° C./5 d", "result": 0.95},
      {"measurement": "Salt-forming ratio", "setting": "formulation pH 5.0, 60° C./10 d", "result": 0.92},
      {"measurement": "Salt-forming ratio", "setting": "formulation pH 5.0, Light irradiation/5 d", "result": 1.00},
      {"measurement": "Salt-forming ratio", "setting": "formulation pH 5.0, Light irradiation/10 d", "result": 1.00},
      {"measurement": "Salt-forming ratio", "setting": "formulation pH 5.5, 0 d", "result": 0.99},
      {"measurement": "Salt-forming ratio", "setting": "formulation pH 5.5, 40° C./5 d", "result": 0.98},
      {"measurement": "Salt-forming ratio", "setting": "formulation pH 5.5, 40° C./10 d", "result": 0.97},
      {"measurement": "Salt-forming ratio", "setting": "formulation pH 5.5, 60° C./5 d", "result": 0.90},
      {"measurement": "Salt-forming ratio", "setting": "formulation pH 5.5, 60° C./10 d", "result": 0.85},
      {"measurement": "Salt-forming ratio", "setting": "formulation pH 5.5, Light irradiation/5 d", "result": 1.00},
      {"measurement": "Salt-forming ratio", "setting": "formulation pH 5.5, Light irradiation/10 d", "result": 1.00}
    ]}
  ]
}
